Results: ChEMBL document CHEMBL1201862, “PubChem BioAssay data set” (2004)
Calls of active or inactive are those of the source.

Tests used:
Large T antigen = Large T antigen (Simian virus 40, UniProt P03070); format: functional, Betapolyomavirus macacae;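 note: Confirmatory-stage PubChem screen for compounds that inhibit SV40 T antigen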
[1] = biological target: T1, Intestinal-type alkaline phosphatase (Homo sapiens, UniProt P09923); experiment: activation of human intestinal alkaline phosphatase – biochemical, dose response (AID 488873); format: functional
[2] = biological target: T2, Intestinal-type alkaline phosphatase (Mus musculus, UniProt P24822); experiment: mouse intestinal alkaline phosphatase activators, dose response, biochemical, luminescence, uHTS hits (AID 488783); format: functional
[3] = biological target: T3, Alkaline phosphatase, tissue-nonspecific isozyme (Homo sapiens, UniProt P05186); experiment: activation of tissue-nonspecific alkaline phosphatase – biochemical, TNAP isozyme, mouse IAP uHTS hits, selectivity assay for mouse IAP activator project, dose response (AID 488880); format: functional
T3 sequence (P05186 whole entry): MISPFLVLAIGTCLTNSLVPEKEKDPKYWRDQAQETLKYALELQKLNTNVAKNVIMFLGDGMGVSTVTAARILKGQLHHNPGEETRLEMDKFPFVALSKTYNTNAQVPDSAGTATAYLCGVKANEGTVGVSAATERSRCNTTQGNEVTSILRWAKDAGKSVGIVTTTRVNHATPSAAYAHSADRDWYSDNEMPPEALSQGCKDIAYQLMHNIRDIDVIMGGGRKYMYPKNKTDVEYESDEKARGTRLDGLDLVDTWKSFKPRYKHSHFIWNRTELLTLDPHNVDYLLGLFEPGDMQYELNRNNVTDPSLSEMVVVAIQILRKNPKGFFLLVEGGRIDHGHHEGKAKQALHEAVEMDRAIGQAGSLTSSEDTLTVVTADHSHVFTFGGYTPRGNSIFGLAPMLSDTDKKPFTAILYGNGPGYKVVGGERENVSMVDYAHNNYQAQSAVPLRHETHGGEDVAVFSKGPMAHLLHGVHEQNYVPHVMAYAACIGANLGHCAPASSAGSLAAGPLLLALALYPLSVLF

Vero = experiment: viability of Vero cells under compound – cytotoxicity control for flavivirus capping enzyme inhibitors (AID 588742); format: functional; details: Chlorocebus sabaeus
[4] = NIH-3T3 fibroblast cytotoxicity, dose response, cytotoxicity control, cell-based, fluorescence, Alamar Blue, secondary assay (AID 2327); format: functional;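 note: NIH-3T3 mouse fibroblasts cultured with fluconazole at 8 µg/mL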
[5] = biological target: T4, Delta-type opioid receptor (Homo sapiens, UniProt P41143); experiment: HTS Image-Based Screen for Antagonists of the DOR Receptor. [Related pubchem assays (depositor defined):AID1777, AID1785, AID1786, AID2133]; format: functional
Mu-type opioid receptor = Mu-type opioid receptor (Homo sapiens, UniProt P35372); experiment: HTS Image-Based Screen for Agonists of the MOR Receptor. [Related pubchem assays (depositor defined):AID1777, AID1785, AID1786, AID2133]; format: functional;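 note: imaging of beta-arrestin GFP recruitment into spots after receptor activation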
[6] = tested on: Streptococcus sp. 'group A'; experiment: Streptococcus pyogenes SK(-)GAS viability under kanamycin – luminescence, BacTiterGlo, confirmation, counter-screen for streptokinase expression inhibitor project, dose response (AID 1900); format: functional, organism-based
[7] = biological target: T4, Delta-type opioid receptor; experiment: HTS Image-Based Screen for Agonists of the DOR Receptor. [Related pubchem assays (depositor defined):AID1777, AID1786, AID2133]; format: functional
[8] = fluconazole-exposed Candida albicans growth modulators – fluorescence, retest, confirmation (AID 2467); format: functional, cell-based
[9] = biological target: T5, Serine/threonine-protein phosphatase (Candida dubliniensis (strain CD36 / CBS 7987 / NCPF 3949 / NRRLY-17841) (Yeast), UniProt B9W6M3); experiment: blockers of CaCl2-induced CDRE-lacZ signaling – S. cerevisiae, luminescence, secondary, dose response (AID 2388); format: functional, cell-based;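 note: yeast reporter cells carrying a calcineurin-responsive lacZ construct stimulated with calcium chloride; luminescent beta-galactosidase reporter signal in whole cells rather than isolated phosphatase activity; potency for inhibition where a drop in reporter signal means calcineurin blockade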
T5 sequence (B9W6M3 whole entry): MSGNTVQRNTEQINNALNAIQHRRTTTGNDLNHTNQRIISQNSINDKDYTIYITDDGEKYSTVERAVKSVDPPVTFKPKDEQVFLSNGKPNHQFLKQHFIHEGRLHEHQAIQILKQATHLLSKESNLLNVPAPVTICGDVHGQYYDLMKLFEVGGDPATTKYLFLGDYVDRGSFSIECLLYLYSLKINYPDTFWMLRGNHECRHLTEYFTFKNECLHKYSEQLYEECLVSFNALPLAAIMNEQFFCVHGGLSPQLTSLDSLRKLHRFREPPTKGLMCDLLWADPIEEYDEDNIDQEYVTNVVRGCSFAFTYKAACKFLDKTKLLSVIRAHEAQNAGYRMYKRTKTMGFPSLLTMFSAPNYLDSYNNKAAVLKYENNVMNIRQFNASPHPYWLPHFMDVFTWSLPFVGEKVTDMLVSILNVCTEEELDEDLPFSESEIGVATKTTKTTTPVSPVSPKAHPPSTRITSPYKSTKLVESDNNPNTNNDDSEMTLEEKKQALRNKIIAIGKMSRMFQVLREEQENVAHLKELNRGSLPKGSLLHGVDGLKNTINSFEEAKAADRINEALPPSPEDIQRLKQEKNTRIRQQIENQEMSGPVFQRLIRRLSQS

[10] = biological target: T6, Kappa-type opioid receptor (Homo sapiens, UniProt P41145); format: functional
Beta-galactosidase = Beta-galactosidase (Escherichia coli, UniProt Q8VNN2); format: functional
[11] = biological target: T6, Kappa-type opioid receptor; format: functional; remark: listed apart in the source
Streptococcus = experiment: GAS UMAA2166 growth inhibition – luminescence, BacTiterGlo, counter-screen for streptokinase expression inhibitor project, dose response (AID 1915); format: functional, organism-based;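 note: potency for reduction of bacterial viability or growth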
HEK293 = experiment: EBV LMP1 TES2 canonical NF-kB signalling blockers – cell-based, HEK293, luciferase, cherry-pick, dose response (AID 588343); format: functional; details: Homo sapiens
[12] = biological target: Heat shock protein HSP 90-alpha (Homo sapiens, UniProt P07900); format: functional, organism-based
[13] = biological target: ATP-dependent molecular chaperone HSP82 (Candida albicans (strain WO-1) (Yeast), UniProt C4YTQ8); experiment: steroid-induced GRE reporter decrease in yeast – S. cerevisiae, luminescence, Hsp90 inhibitor project, dose response (AID 2400); format: functional, cell-based;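 note: beta-galactosidase luminescence from glucocorticoid response element reporter as proxy for Hsp90 function; inhibitor potency where signal loss means Hsp90 inhibition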
[14] = restored growth of temperature-sensitive Burl-1 yeast – whole organism, S. cerevisiae, Burl-1 ts mutant, luminescence, counter-screen for SUMOylation pathway inhibitor project, dose response (AID 463199); format: functional
[15] = biological target: T7, Runt-related transcription factor 1/Core-binding factor subunit beta (Homo sapiens, UniProt Q01196+Q13951); experiment: Confirmation of compounds inhibiting the binding between the RUNX1 Runt domain and CBFb-SMMHC via a fluorescence resonance energy transfer (FRET) assay. [Related pubchem assays (depositor defined):AID1434, AID1438, AID1496, AID1550, AID1645]; format: protein assay
[16] = biological target: T7, Runt-related transcription factor 1/Core-binding factor subunit beta; experiment: Confirmation of compounds inhibiting the binding between the RUNX1 Runt domain and CBFb-SMMHC via a time resolved fluorescence resonance energy transfer (TR-FRET) assay. [Related pubchem assays (depositor defined):AID1434, AID1438, AID1496, AID1560, AID1645]; format: protein assay
[17] = PhoP promoter GFP reporter reduction in Typhimurium – purified and synthesized compounds, set 2, PhoP regulon inhibitor project, dose response (AID 2831); format: functional
[18] = biological target: T6, Kappa-type opioid receptor; experiment: SAR analysis of small molecule agonists of the kappa opioid receptor via a luminescent beta-arrestin assay - Set 3. [Related pubchem assays (depositor defined):AID1777, AID1785, AID1786, AID1966, AID2133, AID2136, AID2284, AID2500]; format: functional
[19] = biological target: T8, Mannose-6-phosphate isomerase (Homo sapiens, UniProt P34949); experiment: phosphomannose isomerase inhibition – biochemical, fluorescence intensity, confirmation (AID 1535)
T8 sequence (P34949 whole entry): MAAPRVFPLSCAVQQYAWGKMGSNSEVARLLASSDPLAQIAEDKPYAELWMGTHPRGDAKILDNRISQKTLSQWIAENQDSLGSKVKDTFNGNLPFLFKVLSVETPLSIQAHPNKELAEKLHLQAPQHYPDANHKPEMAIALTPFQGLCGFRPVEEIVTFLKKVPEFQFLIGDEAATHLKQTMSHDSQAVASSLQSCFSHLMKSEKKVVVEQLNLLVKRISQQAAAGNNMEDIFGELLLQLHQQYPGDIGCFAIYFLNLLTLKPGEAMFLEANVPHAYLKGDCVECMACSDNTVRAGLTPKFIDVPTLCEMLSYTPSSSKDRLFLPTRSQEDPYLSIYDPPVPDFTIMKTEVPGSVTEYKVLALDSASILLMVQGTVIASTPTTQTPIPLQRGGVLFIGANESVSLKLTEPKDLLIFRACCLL

Phosphomannomutase 2 = Phosphomannomutase 2 (Homo sapiens, UniProt O15305); experiment: Counter screen SAR assay for PMM2 inhibitors via a fluorescence intensity assay. [Related pubchem assays (depositor defined):AID1545, AID1574]
[20] = biological target: Nuclear receptor ROR-gamma (Homo sapiens, UniProt P51449); experiment: LXR, FXR and VP16 reporter activity, cell-based, luciferase reporter, ROR modulator project, late-stage follow-up, panel member RORG (AID 2117)
[21] = biological target: Nuclear receptor ROR-alpha (Homo sapiens, UniProt P35398); experiment: LXR, FXR and VP16 reporter activity, cell-based, luciferase reporter, ROR modulator project, late-stage follow-up, panel member RORA (AID 2117)
[22] = biological target: T2, Intestinal-type alkaline phosphatase; experiment: PubChem AID 488785; format: functional
[23] = biological target: T3, Alkaline phosphatase, tissue-nonspecific isozyme; experiment: TNAP enzyme inhibition by screening hits, dose response, selectivity assay for mouse IAP inhibitor project, biochemical, human TNAP, uHTS hits (AID 488906); format: functional
[24] = biological target: T1, Intestinal-type alkaline phosphatase; experiment: inhibition of human intestinal alkaline phosphatase – biochemical, dose response (AID 488876); format: functional
cells [25] = format: functional, cell-based
SUMO-activating enzyme [26] = biological target: T9, SUMO-activating enzyme (Homo sapiens, UniProt Q9UBT2); experiment: blockers of UBC9-mediated SUMO conjugation – biochemical, AlphaScreen, SUMOylation inhibitor project, confirmation (AID 2018); format: functional
SUMO-activating enzyme [27] = biological target: T9, SUMO-activating enzyme; experiment: blockers of SAE1/SAE2–UBC9 SUMO transfer – biochemical, HTRF, uHTS, primary screen (AID 2006); format: protein-complex assay
cells [28] = format: functional, cell-based; remark: listed apart in the source
Galanin receptor type 3 = Galanin receptor type 3 (Homo sapiens, UniProt O60755); experiment: Fluorescence-based cell-based primary high throughput dose response assay to identify antagonists of the Galanin Receptor 3 (GalR3).; format: functional
cells [29] = format: functional, cell-based; details: HEK-CNG
Albumin = Albumin (Bos taurus, UniProt P02769); experiment: Counterscreen for inhibitors of T-cell receptor (TCR)-CD3 interaction: Fluorescence-based biochemical high throughput dose response assay to identify inhibitors of T-cell receptor (TCR)-CD3 interaction using a TAMRA-labeled BSA probe.; format: functional

T6 sequence (P41145 whole entry): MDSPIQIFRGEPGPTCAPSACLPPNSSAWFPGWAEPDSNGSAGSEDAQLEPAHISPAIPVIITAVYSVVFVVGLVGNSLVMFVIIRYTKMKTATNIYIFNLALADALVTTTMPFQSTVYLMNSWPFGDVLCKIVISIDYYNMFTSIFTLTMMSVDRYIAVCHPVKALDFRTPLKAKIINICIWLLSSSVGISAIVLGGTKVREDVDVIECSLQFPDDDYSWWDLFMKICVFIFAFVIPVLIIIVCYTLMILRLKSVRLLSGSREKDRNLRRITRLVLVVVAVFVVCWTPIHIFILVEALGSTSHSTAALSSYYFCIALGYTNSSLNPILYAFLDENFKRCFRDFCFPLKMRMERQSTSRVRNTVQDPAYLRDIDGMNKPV
T4 sequence (P41143 whole entry): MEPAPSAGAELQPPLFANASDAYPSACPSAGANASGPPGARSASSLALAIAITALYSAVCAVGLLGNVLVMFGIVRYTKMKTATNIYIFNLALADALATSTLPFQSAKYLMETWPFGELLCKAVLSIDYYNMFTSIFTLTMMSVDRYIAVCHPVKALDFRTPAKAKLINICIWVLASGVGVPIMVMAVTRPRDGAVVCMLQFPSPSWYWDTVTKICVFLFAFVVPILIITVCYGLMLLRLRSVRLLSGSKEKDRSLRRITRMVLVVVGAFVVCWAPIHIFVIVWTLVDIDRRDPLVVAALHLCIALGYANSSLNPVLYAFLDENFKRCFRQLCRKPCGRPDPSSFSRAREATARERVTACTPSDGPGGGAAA
T9 sequence (Q9UBE0 whole entry): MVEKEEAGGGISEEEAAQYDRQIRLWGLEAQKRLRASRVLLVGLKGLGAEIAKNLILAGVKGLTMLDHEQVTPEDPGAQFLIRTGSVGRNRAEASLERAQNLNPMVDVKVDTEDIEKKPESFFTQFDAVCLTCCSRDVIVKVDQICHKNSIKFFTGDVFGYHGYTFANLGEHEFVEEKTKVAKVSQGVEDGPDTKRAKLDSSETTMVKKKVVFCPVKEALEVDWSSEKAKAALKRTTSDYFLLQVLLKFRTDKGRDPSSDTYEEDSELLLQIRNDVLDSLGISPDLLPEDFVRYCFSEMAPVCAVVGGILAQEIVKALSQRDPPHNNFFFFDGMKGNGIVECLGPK
T9 sequence (Q9UBT2 whole entry): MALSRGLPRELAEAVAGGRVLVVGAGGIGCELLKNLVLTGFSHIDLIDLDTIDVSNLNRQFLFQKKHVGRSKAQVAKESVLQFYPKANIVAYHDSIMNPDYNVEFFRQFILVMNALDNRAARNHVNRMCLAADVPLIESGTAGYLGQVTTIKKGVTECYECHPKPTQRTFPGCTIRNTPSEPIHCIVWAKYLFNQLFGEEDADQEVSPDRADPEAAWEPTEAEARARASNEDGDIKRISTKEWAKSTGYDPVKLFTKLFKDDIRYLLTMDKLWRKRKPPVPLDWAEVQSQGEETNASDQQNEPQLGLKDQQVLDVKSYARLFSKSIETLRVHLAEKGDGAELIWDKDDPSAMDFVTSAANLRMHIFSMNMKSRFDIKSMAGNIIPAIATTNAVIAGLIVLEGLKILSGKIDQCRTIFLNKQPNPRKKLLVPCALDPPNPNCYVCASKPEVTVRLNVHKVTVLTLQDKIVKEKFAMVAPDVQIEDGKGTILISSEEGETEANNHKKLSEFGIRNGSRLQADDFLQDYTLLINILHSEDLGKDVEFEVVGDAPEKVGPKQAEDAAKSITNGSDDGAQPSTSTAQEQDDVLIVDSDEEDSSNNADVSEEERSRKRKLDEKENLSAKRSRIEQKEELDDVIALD
T2 sequence (P24822 whole entry): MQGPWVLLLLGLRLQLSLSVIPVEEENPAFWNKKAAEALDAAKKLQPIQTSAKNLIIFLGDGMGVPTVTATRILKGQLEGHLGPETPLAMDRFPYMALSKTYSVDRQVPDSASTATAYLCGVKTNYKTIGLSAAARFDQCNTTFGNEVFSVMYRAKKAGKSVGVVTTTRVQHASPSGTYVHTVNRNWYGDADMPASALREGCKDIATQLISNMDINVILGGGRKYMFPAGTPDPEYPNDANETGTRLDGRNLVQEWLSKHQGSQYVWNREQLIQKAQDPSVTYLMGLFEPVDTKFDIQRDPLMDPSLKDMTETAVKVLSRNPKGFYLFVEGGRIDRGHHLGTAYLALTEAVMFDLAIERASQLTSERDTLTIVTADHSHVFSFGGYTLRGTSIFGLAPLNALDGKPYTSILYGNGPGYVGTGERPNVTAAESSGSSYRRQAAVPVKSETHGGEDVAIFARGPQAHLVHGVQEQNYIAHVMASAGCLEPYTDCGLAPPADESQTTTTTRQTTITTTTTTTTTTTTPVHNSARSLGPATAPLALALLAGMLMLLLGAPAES
T1 sequence (P09923 whole entry): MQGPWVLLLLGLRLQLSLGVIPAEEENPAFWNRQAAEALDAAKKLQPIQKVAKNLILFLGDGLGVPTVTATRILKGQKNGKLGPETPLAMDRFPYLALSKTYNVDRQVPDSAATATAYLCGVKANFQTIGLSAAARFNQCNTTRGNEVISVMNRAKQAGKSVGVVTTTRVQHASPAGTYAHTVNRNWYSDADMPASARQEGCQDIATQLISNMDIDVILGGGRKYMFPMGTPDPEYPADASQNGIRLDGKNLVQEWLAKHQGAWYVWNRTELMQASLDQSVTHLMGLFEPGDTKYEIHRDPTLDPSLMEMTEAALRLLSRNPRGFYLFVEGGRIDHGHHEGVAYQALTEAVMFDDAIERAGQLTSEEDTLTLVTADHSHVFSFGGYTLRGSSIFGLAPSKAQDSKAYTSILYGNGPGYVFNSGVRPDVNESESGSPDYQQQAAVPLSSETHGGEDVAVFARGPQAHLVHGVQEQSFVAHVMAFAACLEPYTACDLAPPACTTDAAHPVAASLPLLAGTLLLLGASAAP
T7 sequence (Q01196 whole entry, the tested form may be a part): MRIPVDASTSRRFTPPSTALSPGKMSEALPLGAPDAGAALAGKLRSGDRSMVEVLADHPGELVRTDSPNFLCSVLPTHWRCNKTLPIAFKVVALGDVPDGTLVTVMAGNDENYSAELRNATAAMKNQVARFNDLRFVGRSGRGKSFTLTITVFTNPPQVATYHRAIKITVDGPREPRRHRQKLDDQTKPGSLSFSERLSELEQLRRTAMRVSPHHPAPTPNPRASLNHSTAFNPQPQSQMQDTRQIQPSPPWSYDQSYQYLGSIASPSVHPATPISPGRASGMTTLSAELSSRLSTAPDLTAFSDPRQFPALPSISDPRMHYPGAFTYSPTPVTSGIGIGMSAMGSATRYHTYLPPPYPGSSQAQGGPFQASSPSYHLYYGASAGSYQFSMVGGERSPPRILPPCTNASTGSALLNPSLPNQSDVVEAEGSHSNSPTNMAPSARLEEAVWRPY
T7 sequence (Q13951 whole entry, the tested form may be a part): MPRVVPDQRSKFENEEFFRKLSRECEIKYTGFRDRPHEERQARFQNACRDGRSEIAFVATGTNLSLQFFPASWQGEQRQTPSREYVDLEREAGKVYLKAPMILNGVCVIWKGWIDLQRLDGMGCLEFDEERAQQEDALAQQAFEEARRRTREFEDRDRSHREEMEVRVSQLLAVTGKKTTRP
Chain of ATP-dependent molecular chaperone HSP82 (C4YTQ8 whole entry): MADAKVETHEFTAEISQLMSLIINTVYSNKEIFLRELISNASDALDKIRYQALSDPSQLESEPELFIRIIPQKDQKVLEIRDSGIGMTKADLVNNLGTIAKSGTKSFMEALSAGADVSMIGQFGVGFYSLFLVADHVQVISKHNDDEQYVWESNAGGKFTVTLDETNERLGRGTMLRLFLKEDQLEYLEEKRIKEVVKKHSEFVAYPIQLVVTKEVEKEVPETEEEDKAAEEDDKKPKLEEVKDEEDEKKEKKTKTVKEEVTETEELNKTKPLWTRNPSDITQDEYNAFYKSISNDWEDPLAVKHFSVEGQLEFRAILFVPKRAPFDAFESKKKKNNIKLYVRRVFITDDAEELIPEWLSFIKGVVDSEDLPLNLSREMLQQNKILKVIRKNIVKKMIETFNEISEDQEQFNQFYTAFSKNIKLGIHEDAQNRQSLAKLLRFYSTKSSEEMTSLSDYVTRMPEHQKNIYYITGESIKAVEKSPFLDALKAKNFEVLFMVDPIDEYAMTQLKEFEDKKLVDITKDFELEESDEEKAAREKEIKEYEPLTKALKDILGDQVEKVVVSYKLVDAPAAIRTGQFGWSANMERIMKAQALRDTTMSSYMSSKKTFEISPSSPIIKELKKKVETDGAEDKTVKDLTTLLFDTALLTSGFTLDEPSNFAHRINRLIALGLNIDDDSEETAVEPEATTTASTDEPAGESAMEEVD
Chain of Nuclear receptor ROR-alpha (P35398 whole entry): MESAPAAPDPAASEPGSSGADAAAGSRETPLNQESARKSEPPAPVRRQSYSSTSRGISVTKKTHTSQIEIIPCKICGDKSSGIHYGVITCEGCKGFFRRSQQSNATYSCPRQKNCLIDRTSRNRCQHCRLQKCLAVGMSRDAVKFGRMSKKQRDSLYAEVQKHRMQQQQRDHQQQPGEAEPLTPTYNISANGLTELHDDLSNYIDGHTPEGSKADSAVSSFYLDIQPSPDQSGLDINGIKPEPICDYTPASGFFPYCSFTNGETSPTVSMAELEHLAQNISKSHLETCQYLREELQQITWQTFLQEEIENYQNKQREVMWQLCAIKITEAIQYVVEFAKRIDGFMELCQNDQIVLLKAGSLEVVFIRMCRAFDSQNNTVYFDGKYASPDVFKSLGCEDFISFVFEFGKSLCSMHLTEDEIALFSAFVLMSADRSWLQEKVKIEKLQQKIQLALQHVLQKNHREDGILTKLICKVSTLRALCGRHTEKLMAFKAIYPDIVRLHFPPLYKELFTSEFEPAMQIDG
Chain of Phosphomannomutase 2 (O15305 whole entry): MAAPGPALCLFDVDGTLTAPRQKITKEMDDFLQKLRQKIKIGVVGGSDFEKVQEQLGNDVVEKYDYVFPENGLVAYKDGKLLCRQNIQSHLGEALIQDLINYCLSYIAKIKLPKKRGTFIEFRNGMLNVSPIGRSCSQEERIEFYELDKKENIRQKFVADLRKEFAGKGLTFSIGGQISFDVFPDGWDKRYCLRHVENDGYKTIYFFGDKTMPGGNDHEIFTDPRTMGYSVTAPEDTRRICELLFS

## O=C(CN1C(=O)/C(=C/c2ccco2)SC1=S)NC1CCS(=O)(=O)C1 (stereo not drawn)
Large T antigen
  IC50: 85 µM (active)
[1]
  EC50: > 100 µM (inactive)
[2]
  EC50: 2.03 µM (active)
[3]
  EC50: > 100 µM (inactive)
Vero
  CC50: > 40 µM (active)

## O=C(Nc1nnc(SCc2ccc(F)cc2)s1)c1ccccn1
[4]
  EC50: 74.7 µM (active)
[5]
  IC50: > 32 µM (inactive)
Mu-type opioid receptor
  EC50: > 32 µM (inactive)
[6]
  EC50: 0.663 µM (active)
[7]
  EC50: > 32 µM (inactive)
[8]
  EC50: 1.42 µM (active)
[9]
  EC50: > 180 µM (inactive)
[10]
  IC50: 4.45 µM (active)
Beta-galactosidase
  EC50: > 31.5 µM (inactive)
[11]
  IC50: > 32 µM
Streptococcus
  EC50: 2.54 µM (active)
HEK293
  AC50: 1.97 µM (active)
[12]
  AC50: 3.56 µM (active)
[13]
  EC50: 4.97 µM (active)

## O=C(CSc1nnc(NC(=O)CN2CCOCC2)s1)Nc1ccccc1
[14]
  AC50: 47.5 µM (active)

## Cc1cc(C=NNC(=O)Cn2c3ccccc3c(=O)c3ccccc32)c(C)n1-c1ccc(Cl)cc1
[15]
  IC50: 3.58 µM (active)
[16]
  IC50: 13.6 µM (active)

## O=C(Nc1ccc(Cl)cc1)N1CCCN(Cc2ccccc2F)C1
[17]
  IC50: > 125 µM (active)

## COc1ccc(Cn2c(SCc3ccccc3)nnc2-c2ccccn2)cc1
[18]
  EC50: > 20 µM (inactive)

## Nc1ccccc1/N=c1\ssnc1Cl
[19]
  IC50: 9.43 µM (active)
Phosphomannomutase 2
  IC50: > 100 µM (inactive)

## COc1cccc(S(=O)(=O)Nc2ccc(C(O)(C(F)(F)F)C(F)(F)F)cc2)c1
[20]
  IC50: 7.23 µM (active)
[21]
  IC50: 2.31 µM (active)

## COC(=O)C/C=N/NC1=NC(=O)/C(=C/C(=O)O)S1
[22]
  IC50: 3.68 µM (active)
[23]
  IC50: > 100 µM (inactive)
[24]
  IC50: 1.74 µM (active)

## C/C(=N\OCc1nc2ccccc2c(=O)n1/N=C/c1cc(C)cc([N+](=O)[O-])c1O)c1ccccc1
Cells [25]
  EC50: 78 µM (active)
SUMO-activating enzyme [26]
  IC50: 1.2 µM (active)
SUMO-activating enzyme [27]
  IC50: 8.77 µM (active)
Cells [28]
  EC50: > 350 µM (not active)
Galanin receptor type 3
  IC50: 3.39 µM (active)
Cells [29]
  EC50: > 29.9 µM (inactive)
Albumin
  IC50: > 94.1 µM (inactive)
